In paper PMC5537346, “Characterisation and pharmacological analysis of a crustacean G protein-coupled receptor: the red pigment-concentrating hormone receptor of Daphnia pulex” (Scientific Reports, 2017):
Like-named read-outs stand apart in the source and are kept apart here. Where a SMILES comes first, the peptide text is derived from it. [ ]: non-standard residue; d: D form. pGlu = O=C1CC[C@@H](C(=O)O)N1

Legend:
[1] = target: T1, Dappu-RPCHR (Daphnia pulex RPCH receptor) (Daphnia pulex, UniProt A0A240FBD5); test: in vitro cell-based bioluminescence (aequorin Ca2+) assay on Dappu-RPCHR expressing CHO-WTA11 cells
T1 sequence (A0A240FBD5 1-451): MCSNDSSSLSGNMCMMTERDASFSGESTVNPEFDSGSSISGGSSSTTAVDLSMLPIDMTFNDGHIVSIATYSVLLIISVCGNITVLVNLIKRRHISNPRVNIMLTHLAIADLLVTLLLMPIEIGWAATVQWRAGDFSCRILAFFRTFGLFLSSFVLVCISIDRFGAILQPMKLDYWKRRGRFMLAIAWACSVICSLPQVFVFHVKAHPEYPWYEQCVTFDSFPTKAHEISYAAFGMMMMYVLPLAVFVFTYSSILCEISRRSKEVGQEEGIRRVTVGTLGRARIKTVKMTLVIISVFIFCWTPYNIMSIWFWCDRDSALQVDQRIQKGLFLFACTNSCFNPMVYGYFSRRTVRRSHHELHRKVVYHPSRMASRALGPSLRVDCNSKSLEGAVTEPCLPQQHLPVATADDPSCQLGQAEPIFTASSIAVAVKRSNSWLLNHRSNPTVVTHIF
Experimental: Pharmacological analyses were performed in Chinese hamster ovary (CHO) WTA11 cells stably co-expressing the bioluminescent protein apoaequorin and the promiscuous Gα16 subunit, which couples most agonist-induced GPCRs to the phospholipase C and Ca^2+ pathway, irrespective of their natural signalling cascade.
CHO-WTA11 cells were cultured in monolayers in Dulbecco’s Modified Eagles Medium nutrient mixture F12-Ham (DMEM/F12) with L-glutamine, 15 mM HEPES, sodium bicarbonate and phenol red (Sigma-Aldrich) supplemented with 100 IU/ml penicillin and 100 µg/ml streptomycin (Gibco), 10% heat-inactivated fetal bovine serum (Gibco) and […] zeocin (Gibco). All cells were maintained in an incubator at 37 °C with a constant supply of 5% CO2.
Transfections with pcDNA3.1-Dappu-RPCHR or empty pcDNA3.1 vector were carried out in T75 flasks at 60–80% confluency. Transfection medium was prepared using the Lipofectamine LTX Kit (Invitrogen) with 2.5 ml Opti-MEM® (Gibco), 12.5 µl PlusTM Reagent and 5 µg vector construct in 5 ml polystyrene round-bottom tubes. After a 5 min incubation period at room temperature, 30 µl LTX was added to the medium. After a further incubation period of 30 min at room temperature, the medium was removed and DNA/LTX mix was added dropwise to the cells followed by 3 ml of fresh complete medium.
Following transfection, cells were incubated overnight (37 °C, 5% CO2), then 10 ml of cell medium was added followed by a second overnight incubation (37 °C, 5% CO2). Ligand-induced changes in intracellular Ca^2+ were then monitored in the cells as described below.
CHO-WTA11 cells transfected with receptor construct (or empty vector) plasmid were detached with PBS, complemented with 0.2% EDTA (pH 8.0), and rinsed off the flask with DMEM/F12 with L-glutamine and 15 mM HEPES (Sigma-Aldrich). The number of viable and nonviable cells was determined using a TC20 automated Cell Counter (BIO-RAD). The cells were pelleted for 5 minutes at 800 rpm and resuspended to a density of 5.10^6 cells/ml in sterile filtered bovine serum albumin (BSA) medium (DMEM/F12 with L-glutamine and 15 mM Hepes, supplemented with 0.1% BSA) and loaded with 5 µM Coelenterazine_h (Invitrogen) for 4 h in the dark, at room temperature, while gently shaking to reconstitute the holo-enzyme aequorin. After a 10-fold dilution, cell solution (50 µl) was delivered to each well in a 96-well plate (~25000 cells/well) and cells were exposed to potential ligands reconstituted in BSA medium and distributed across the plate. In every row, BSA medium alone was placed in one well to serve as the negative control (blank). The Ca^2+ response was recorded for 30 s on a Mithras LB 940 (Berthold Technologies). After 30 s, 0.1% Triton X-100, a non-ionic surfactant, was added to the same well to measure the total cellular Ca^2+ response. The total response (ligand + Triton X-100), which is directly related to the number of cells present in the well, was used to normalise the response. The response of each negative control was subtracted from the luminescence obtained for wells within the same row. Calculations were made using the output file from the Microwin software (Berthold Technologies) in Excel (Microsoft). Further analysis was done in GraphPad Prism 5.

[2] = tested on: Palaemon pacificus; design: method as in PMID 19686751; conditions: in vivo, shrimp Palaemon pacificus; cited from earlier work
[3] = tested on: Nezara viridula; design: method as in PMID 19686751; conditions: in vivo; cited from earlier work
[4] = Table 1, AKH/RPCH and related peptides, calculated from dose-response curves

Compound | EC50 [1] | concentration at which full activity was achieved [1] | EC50 [1, 4] | EC50 ([1]; Table 2, analogues of Dappu-RPCH) | effect on pigment migration in a decapod crustacean [2] | biological activity in the green stink bug [3] | activation of Dappu-RPCHR (in words) ([1]; Locmi-ACP statement at 10 µM) | % of the maximum activation ([1]; peptide concentration of 10 µM) | EC50 values (in words) [1]
CC(C)[C@H](NC(=O)[C@@H]1CCC(=O)N1)C(=O)N[C@@H](CC(N)=O)C(=O)N[C@@H](Cc1ccccc1)C(=O)N[C@@H](CO)C(=O)N[C@H](C(=O)N[C@@H](CO)C(=O)N[C@@H](Cc1c[nH]c2ccccc12)C(N)=O)[C@@H](C)O [Dappu-RPCH, pQVNFSTSWamide] ([pGlu]VNFSTSW-NH2) | 0.065 nM | 0.1 nM | 0.0645 nM | 0.0645 nM | could not affect pigment migration | caused measurable biological activity | – | – | –
pQVTFSRDWSPamide [Locmi-ACP] | – | – | – | – | – | – | only slightly active | 30% | –
CC(C)C[C@H](NC(=O)[C@@H]1CCC(=O)N1)C(=O)N[C@@H](CC(N)=O)C(=O)N[C@@H](Cc1ccccc1)C(=O)N[C@@H](CO)C(=O)N1CCC[C@H]1C(=O)N[C@@H](CO)C(=O)N[C@@H](Cc1c[nH]c2ccccc12)C(N)=O [Corpu-AKH, pQLNFSPSWamide] ([pGlu]LNFSPSW-NH2) | – | – | 0.212 nM | – | – | – | – | – | more or less the same as for Anaim-AKH
